Data as given in patent US12377107B2, “NT5C2 inhibitors for the treatment of chemotherapy-resistant acute lymphoblastic leukemia” (THE TRUSTEES OF COLUMBIA UNIVERSITY IN THE CITY OF NEW YORK, priority 2019, dated 2025).

Experiments:
NT5C2 = NT5C2 (Homo sapiens, UniProt P49902, R367Q); assay: NT5C2 inhibition test (malachite green based assay detecting free inorganic phosphate); type: biochemical
[1] = Dissolution of compound for NT5C2 inhibition test; type: physicochemical
[2] = test system: NT5C2 R367Q mutant mouse lymphoblasts; assay: Cell viability of NT5C2 R367Q mutant mouse lymphoblasts in combination with 6-MP; type: cell-based; conditions: for synergy with 6-MP to decrease cell viability: combination with 6-mercaptopurine, dose-dependent
Description: Various embodiments relate to the synthesis and characterization of NT5C2 inhibitors, HTP47 and HTP48, for treatment of chemotherapy resistant T-ALL.
[drawing 5] • to decrease cell viability of NT5C2 R367Q mutant mouse lymphoblasts. As such, various embodiments may be used in combination with existing chemotherapies to treat T-ALL and relapsed T-ALL.
Various embodiments relate to ongoing in vitro and in vivo functional characterization and development of optimized inhibitors. […] Control experiment were performed for dose optimization of HTP47 and HTP48 in C2-2 NT5C2 WT mouse lymphoblasts. […] Synthesis reactions for HTP47 and HTP48 are also provided.

Chain of NT5C2 (P49902 whole entry R367Q): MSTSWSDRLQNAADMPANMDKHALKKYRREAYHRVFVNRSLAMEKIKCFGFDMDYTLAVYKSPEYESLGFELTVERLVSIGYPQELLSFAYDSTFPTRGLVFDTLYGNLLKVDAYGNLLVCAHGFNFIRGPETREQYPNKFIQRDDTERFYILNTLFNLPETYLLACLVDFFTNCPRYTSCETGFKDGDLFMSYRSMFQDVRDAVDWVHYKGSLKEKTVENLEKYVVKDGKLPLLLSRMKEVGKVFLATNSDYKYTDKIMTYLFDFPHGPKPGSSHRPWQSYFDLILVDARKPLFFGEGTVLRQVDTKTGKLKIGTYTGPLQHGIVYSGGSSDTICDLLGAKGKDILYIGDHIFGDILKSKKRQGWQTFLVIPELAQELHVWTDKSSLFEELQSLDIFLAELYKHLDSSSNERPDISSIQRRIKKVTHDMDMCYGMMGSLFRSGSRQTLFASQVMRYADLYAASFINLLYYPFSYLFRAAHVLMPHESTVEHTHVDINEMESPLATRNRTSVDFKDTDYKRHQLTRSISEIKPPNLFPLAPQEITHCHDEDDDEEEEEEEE

| Compound | NT5C2 inhibitory activity (NT5C2; assay format not given) | NT5C2 inhibitory activity (NT5C2; malachite green based assay) | other results |
| --- | --- | --- | --- |
| CC1(CO)CCN(C(=O)c2c[nH]c(=O)c3ccccc23)CC1 [Formula 35] | no NT5C2 inhibition activity |  |  |
| CCC1(CC)CCN(C(=O)c2c[nH]c(=O)c3ccccc23)CC1 [Formula 36] | no NT5C2 inhibition activity |  |  |
| CNC1CCN(C(=O)c2c[nH]c(=O)c3ccccc23)CC1 [Formula 37] | no NT5C2 inhibition activity |  |  |
| CC(C)CCNC(=O)c1c[nH]c(=O)c2ccccc12 [Formula 38] | no NT5C2 inhibition activity was observed |  | dissolution [1]: did not dissolve |
| NCC1CCCN(C(=O)c2c[nH]c(=O)c3ccccc23)C1 (centres unmarked) [Formula 39] | no NT5C2 inhibition activity |  |  |
| NC(=O)c1c(NC(=O)c2ccc3[nH]cnc3c2)sc2c1CCCC2 [HTP2] | have NT5C2 inhibitory activity | NT5C2 inhibitory activity |  |
| N#Cc1c(NC(=O)c2ccc3[nH]cnc3c2)sc2c1CCCC2 [HTP22] | have NT5C2 inhibitory activity |  |  |
| NC(=O)c1c(NC(=O)c2ccc3[nH]cnc3c2)sc2c1CCC2 [HTP41] | have NT5C2 inhibitory activity |  |  |
| Cc1nc2nc(C(=O)Nc3sc4c(c3C(N)=O)CCCC4)ccc2[nH]1 [HTP47] | have NT5C2 inhibitory activity | NT5C2 inhibitory activity | potency of 6-MP in combination, comparison of HTP47 and HTP48 ([2]; combination with 6-MP): greater potency of 6-MP in combination with HTP47 compared to HTP48; synergy with 6-MP to decrease cell viability [2]: act synergistically with 6-MP in a dose-dependent manner |
| Cn1cnc2cc(C(=O)Nc3sc4c(c3C(N)=O)CCCC4)ccc21 [HTP48] | have NT5C2 inhibitory activity | NT5C2 inhibitory activity | synergy with 6-MP to decrease cell viability [2]: act synergistically with 6-MP in a dose-dependent manner |
